What was measured:
[1] = target: T1, PIK3CA (Homo sapiens, UniProt P42336); test: KinomeScan; type: binding; conditions: read-out: % control
T1 construct: purchased DiscoveRx KINOMEscan

[2] = target: T2, BRAF (Homo sapiens, UniProt P15056); test: KinomeScan; type: binding; conditions: read-out: % control
T2 construct: purchased DiscoveRx KINOMEscan

[3] = target: T3, PHKG1 (Homo sapiens, UniProt Q16816); test: KinomeScan; type: binding; conditions: read-out: % control
T3 construct: purchased DiscoveRx KINOMEscan

[4] = target: T4, HASPIN (Homo sapiens, UniProt Q8TF76); test: KinomeScan; type: binding; conditions: read-out: % control
T4 construct: purchased DiscoveRx KINOMEscan
T4 sequence (Q8TF76 whole entry): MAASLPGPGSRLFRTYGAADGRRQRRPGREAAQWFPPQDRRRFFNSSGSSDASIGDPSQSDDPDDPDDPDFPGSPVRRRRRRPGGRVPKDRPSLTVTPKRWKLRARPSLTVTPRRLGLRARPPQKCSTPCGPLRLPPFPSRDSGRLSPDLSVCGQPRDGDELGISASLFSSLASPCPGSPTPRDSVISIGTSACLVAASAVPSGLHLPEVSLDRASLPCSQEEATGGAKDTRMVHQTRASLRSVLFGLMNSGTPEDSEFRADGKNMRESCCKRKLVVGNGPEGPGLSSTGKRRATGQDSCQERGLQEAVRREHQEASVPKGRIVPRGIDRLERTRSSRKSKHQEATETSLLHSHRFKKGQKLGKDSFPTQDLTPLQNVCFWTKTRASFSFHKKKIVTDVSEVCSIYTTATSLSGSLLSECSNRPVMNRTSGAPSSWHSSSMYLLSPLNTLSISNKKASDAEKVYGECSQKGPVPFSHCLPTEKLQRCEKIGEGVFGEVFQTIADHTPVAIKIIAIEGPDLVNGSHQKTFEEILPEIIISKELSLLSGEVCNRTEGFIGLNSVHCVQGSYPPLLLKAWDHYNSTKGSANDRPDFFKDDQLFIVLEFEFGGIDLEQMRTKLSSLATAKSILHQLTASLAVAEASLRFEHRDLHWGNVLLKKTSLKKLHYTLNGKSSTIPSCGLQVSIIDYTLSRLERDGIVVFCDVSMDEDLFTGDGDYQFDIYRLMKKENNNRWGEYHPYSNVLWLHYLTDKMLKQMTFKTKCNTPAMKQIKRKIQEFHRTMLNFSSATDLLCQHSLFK

[5] = target: T5, PIK4CB (Homo sapiens, UniProt Q9UBF8); test: KinomeScan; type: binding; conditions: read-out: % control
T5 construct: purchased DiscoveRx KINOMEscan

[6] = target: T6, LYN (Homo sapiens, UniProt P07948); test: KinomeScan; type: binding; conditions: read-out: % control
T6 construct: purchased DiscoveRx KINOMEscan
T6 sequence (P07948 whole entry): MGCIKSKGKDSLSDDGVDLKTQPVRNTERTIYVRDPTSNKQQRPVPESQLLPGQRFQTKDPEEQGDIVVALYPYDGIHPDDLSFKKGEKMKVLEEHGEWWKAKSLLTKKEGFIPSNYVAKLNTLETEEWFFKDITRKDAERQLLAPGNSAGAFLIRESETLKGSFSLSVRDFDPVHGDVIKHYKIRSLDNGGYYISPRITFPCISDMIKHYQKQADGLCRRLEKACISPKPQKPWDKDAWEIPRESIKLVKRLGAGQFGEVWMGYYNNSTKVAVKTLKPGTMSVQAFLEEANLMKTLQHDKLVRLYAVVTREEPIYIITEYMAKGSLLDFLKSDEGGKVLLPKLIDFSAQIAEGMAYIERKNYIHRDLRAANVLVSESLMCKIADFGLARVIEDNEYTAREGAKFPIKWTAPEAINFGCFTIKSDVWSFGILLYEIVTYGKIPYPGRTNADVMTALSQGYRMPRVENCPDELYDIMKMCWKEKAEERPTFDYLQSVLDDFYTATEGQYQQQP

[7] = target: T7, MYLK (Homo sapiens, UniProt Q15746); test: KinomeScan; type: binding; conditions: read-out: % control
T7 construct: purchased DiscoveRx KINOMEscan

[8] = target: T8, CAMK1 (Homo sapiens, UniProt Q14012); test: KinomeScan; type: binding; conditions: read-out: % control
T8 construct: purchased DiscoveRx KINOMEscan
T8 sequence (Q14012 whole entry): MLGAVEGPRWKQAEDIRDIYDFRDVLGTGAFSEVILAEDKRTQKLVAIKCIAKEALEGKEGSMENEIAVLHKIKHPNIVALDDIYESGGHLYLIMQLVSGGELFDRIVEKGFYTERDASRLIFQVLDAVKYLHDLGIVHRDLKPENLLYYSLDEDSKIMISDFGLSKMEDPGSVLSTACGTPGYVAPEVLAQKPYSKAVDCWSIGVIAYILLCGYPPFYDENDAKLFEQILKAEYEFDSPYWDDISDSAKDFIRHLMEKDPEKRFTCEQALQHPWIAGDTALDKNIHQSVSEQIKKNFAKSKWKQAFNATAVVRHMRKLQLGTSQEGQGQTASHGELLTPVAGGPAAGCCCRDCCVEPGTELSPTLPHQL

[9] = target: T9, PKAC-alpha (Homo sapiens, UniProt P17612); test: KinomeScan; type: binding; conditions: read-out: % control
T9 construct: purchased DiscoveRx KINOMEscan

[10] = target: T10, MLCK (Homo sapiens, UniProt Q32MK0); test: KinomeScan; type: binding; conditions: read-out: % control
T10 construct: purchased DiscoveRx KINOMEscan

[11] = target: T11, LIMK2 (Homo sapiens, UniProt P53671); test: KinomeScan; type: binding; conditions: read-out: % control
T11 construct: purchased DiscoveRx KINOMEscan
T11 sequence (P53671 whole entry): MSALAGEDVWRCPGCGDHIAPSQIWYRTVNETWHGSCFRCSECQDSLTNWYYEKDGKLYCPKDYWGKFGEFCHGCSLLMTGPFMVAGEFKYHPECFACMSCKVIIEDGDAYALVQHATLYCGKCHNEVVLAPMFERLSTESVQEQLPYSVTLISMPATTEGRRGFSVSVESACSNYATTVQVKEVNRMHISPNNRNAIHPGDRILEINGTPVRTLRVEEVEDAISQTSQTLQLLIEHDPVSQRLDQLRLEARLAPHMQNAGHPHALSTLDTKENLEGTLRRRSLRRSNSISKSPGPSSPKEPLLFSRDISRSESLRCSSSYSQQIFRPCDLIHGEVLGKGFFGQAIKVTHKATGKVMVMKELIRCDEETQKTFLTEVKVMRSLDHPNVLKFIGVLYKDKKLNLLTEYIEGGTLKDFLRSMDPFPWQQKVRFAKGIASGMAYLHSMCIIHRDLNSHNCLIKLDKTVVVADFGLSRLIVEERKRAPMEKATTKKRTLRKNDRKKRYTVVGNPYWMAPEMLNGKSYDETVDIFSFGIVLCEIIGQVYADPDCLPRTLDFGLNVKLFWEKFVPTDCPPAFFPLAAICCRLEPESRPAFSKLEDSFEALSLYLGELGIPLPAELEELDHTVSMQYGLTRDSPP

[12] = target: T12, FLT3 (Homo sapiens, UniProt P36888); test: KinomeScan; type: binding; conditions: read-out: % control
T12 construct: purchased DiscoveRx KINOMEscan

[13] = target: T13, EGFR(L858R,T790M) (Homo sapiens, UniProt P00533, L858R/T790M); test: KinomeScan; type: binding; conditions: read-out: % control
T13 construct: purchased DiscoveRx KINOMEscan
T13 sequence (P00533 25-1210 T790M/L858R): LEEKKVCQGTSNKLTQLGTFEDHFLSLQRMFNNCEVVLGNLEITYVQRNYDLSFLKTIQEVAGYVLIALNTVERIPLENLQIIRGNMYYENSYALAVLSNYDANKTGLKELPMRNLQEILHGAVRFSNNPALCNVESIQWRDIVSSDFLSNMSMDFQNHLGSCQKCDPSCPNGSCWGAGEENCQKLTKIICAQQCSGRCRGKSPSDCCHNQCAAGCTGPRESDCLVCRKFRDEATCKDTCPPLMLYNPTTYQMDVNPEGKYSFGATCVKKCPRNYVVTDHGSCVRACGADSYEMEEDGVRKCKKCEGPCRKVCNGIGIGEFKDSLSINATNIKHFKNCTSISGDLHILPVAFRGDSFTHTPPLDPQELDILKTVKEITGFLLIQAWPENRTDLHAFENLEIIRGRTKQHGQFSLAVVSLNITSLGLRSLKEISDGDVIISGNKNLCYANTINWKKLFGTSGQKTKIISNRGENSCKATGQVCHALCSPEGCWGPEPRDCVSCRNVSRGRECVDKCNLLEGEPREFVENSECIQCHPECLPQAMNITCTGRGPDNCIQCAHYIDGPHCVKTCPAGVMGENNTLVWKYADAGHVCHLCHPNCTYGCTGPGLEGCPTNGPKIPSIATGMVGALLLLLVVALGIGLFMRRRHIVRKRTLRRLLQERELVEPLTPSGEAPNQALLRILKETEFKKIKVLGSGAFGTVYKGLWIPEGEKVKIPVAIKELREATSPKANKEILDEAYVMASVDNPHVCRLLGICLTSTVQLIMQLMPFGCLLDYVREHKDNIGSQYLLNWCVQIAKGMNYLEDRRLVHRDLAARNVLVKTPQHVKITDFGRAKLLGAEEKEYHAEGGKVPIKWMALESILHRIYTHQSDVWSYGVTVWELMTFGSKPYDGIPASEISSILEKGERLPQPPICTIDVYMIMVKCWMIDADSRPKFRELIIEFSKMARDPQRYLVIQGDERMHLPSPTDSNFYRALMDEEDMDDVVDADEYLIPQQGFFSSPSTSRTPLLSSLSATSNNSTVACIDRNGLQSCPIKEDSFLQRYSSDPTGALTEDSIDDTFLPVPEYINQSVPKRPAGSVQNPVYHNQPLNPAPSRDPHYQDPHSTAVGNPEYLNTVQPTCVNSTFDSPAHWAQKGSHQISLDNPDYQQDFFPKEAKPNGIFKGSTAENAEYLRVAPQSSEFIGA

[14] = target: T14, FGFR3 (Homo sapiens, UniProt P22607); test: KinomeScan; type: binding; conditions: read-out: % control
T14 construct: purchased DiscoveRx KINOMEscan

[15] = target: T15, FLT3(R834Q) (Homo sapiens, UniProt P36888, R834Q); test: KinomeScan; type: binding; conditions: read-out: % control
T15 construct: purchased DiscoveRx KINOMEscan

[16] = system: 468 kinases/mutants; test: KinomeScan selectivity profile (panel); type: binding; conditions: 1μM
From the text: In order to better understand CHMFL-EGFR-26's selectivity, we then tested it in DiscoveRx's KinomeScan™ assay. […] Given the fact that KinomeScan™ is a binding assay and sometimes cannot truly reflect the compound inhibitory activity, we then used Invitrogen SelectScreen® assay to test these potential off-targets (Supplementary Table 2). […] This was not surprising because EGFR, JAK3, HER2, HER4 and TEC family kinases (BTK, BLK and BMX) all share a similar cysteine residue at the identical position analogous to Cys 797 in EGFR in the hinge binding area.

[17] = target: T16, JNK1 (Homo sapiens, UniProt P45983); test: KinomeScan; type: binding; conditions: read-out: % control
T16 construct: purchased DiscoveRx KINOMEscan

[18] = target: T17, CAMK2A (Homo sapiens, UniProt Q9UQM7); test: KinomeScan; type: binding; conditions: read-out: % control
T17 construct: purchased DiscoveRx KINOMEscan

[19] = target: T18, PIM1 (Homo sapiens, UniProt P11309); test: KinomeScan; type: binding; conditions: read-out: % control
T18 construct: purchased DiscoveRx KINOMEscan

[20] = target: T19, ACVR2B (Homo sapiens, UniProt Q13705); test: KinomeScan; type: binding; conditions: read-out: % control
T19 construct: purchased DiscoveRx KINOMEscan

[21] = system: FLT3(ITD,F691L); test: KinomeScan; type: binding; conditions: 1μM
[22] = target: T20, CAMK2G (Homo sapiens, UniProt Q13555); test: KinomeScan; type: binding; conditions: read-out: % control
T20 construct: purchased DiscoveRx KINOMEscan
T20 sequence (Q13555 whole entry): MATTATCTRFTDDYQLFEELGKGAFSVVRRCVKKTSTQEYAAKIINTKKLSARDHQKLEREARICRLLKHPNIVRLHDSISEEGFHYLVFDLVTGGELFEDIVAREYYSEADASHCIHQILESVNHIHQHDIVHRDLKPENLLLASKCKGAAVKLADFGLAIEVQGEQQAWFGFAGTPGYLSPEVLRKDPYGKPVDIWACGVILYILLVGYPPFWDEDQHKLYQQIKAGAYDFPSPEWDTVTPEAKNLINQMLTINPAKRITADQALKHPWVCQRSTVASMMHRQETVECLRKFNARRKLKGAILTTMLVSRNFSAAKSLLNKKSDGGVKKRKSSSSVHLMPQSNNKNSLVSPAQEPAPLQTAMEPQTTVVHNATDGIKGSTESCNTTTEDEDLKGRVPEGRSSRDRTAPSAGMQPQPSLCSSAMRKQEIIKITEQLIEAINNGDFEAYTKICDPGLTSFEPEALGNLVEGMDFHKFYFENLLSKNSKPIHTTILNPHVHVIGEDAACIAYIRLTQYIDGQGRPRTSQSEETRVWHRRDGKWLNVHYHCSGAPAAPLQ

[23] = target: T21, FLT1 (Homo sapiens, UniProt P17948); test: KinomeScan; type: binding; conditions: read-out: % control
T21 construct: purchased DiscoveRx KINOMEscan

[24] = target: T22, IKK-epsilon (Homo sapiens, UniProt Q14164); test: KinomeScan; type: binding; conditions: read-out: % control
T22 construct: purchased DiscoveRx KINOMEscan

[25] = target: T23, CDC2L5 (Homo sapiens, UniProt Q14004); test: KinomeScan; type: binding; conditions: read-out: % control
T23 construct: purchased DiscoveRx KINOMEscan

[26] = target: T24, CLK1 (Homo sapiens, UniProt P49759); test: KinomeScan; type: binding; conditions: read-out: % control
T24 construct: purchased DiscoveRx KINOMEscan

[27] = target: T25, PFPK5(P.falciparum) (Plasmodium falciparum, UniProt P61075); test: KinomeScan; type: binding; conditions: read-out: % control
T25 construct: purchased DiscoveRx KINOMEscan

[28] = target: T26, AXL (Homo sapiens, UniProt P30530); test: KinomeScan; type: binding; conditions: read-out: % control
T26 construct: purchased DiscoveRx KINOMEscan

[29] = target: T27, JNK3 (Homo sapiens, UniProt P53779); test: KinomeScan; type: binding; conditions: read-out: % control
T27 construct: purchased DiscoveRx KINOMEscan

[30] = target: T28, MARK3 (Homo sapiens, UniProt P27448); test: KinomeScan; type: binding; conditions: read-out: % control
T28 construct: purchased DiscoveRx KINOMEscan

[31] = system: BaF3-TEL-EGFR-L858R; test: Anti-proliferation, BaF3 isogenic cell lines (CellTiter-Glo); type: cell-based; conditions: Mus musculus, 72 hours, triplet testing
[32] = target: T29, ACVRL1 (Homo sapiens, UniProt P37023); test: KinomeScan; type: binding; conditions: read-out: % control
T29 construct: purchased DiscoveRx KINOMEscan
T29 sequence (P37023 22-503): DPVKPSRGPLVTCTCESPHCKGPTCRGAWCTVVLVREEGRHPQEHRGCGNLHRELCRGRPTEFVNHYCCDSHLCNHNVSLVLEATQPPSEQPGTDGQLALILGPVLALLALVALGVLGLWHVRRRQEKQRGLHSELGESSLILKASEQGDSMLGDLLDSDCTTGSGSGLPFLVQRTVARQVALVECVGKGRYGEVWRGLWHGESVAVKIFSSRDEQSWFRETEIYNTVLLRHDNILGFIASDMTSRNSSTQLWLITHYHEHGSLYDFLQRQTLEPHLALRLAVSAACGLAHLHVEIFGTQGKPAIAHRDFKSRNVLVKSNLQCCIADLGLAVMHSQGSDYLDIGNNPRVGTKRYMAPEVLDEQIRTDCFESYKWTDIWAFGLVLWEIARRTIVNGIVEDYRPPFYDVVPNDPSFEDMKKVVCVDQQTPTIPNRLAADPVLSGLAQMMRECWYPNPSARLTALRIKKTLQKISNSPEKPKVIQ

[33] = target: T30, CDK8 (Homo sapiens, UniProt P49336); test: KinomeScan; type: binding; conditions: read-out: % control
T30 construct: purchased DiscoveRx KINOMEscan

[34] = target: T31, PRKG2 (Homo sapiens, UniProt Q13237); test: KinomeScan; type: binding; conditions: read-out: % control
T31 construct: purchased DiscoveRx KINOMEscan

[35] = target: T32, CSNK1G2 (Homo sapiens, UniProt P78368); test: KinomeScan; type: binding; conditions: read-out: % control
T32 construct: purchased DiscoveRx KINOMEscan

[36] = target: T33, AKT2 (Homo sapiens, UniProt P31751); test: KinomeScan; type: binding; conditions: read-out: % control
T33 construct: purchased DiscoveRx KINOMEscan

[37] = target: T34, BMPR1B (Homo sapiens, UniProt O00238); test: KinomeScan; type: binding; conditions: read-out: % control
T34 construct: purchased DiscoveRx KINOMEscan
T34 sequence (O00238 14-502): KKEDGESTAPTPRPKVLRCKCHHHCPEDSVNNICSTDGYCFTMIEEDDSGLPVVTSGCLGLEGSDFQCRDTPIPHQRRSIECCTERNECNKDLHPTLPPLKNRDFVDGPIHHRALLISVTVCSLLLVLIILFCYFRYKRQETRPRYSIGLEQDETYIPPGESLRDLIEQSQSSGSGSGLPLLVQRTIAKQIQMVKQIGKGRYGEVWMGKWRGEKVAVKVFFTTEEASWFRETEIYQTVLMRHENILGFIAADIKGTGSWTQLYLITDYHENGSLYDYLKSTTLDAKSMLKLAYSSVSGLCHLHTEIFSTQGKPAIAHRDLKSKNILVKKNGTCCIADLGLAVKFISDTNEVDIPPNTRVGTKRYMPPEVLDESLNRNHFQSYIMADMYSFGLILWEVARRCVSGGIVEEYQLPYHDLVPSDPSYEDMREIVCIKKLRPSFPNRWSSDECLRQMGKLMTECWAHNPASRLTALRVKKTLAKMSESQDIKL

[38] = target: T35, IRAK1 (Homo sapiens, UniProt P51617); test: KinomeScan; type: binding; conditions: read-out: % control
T35 construct: purchased DiscoveRx KINOMEscan

[39] = target: T36, TGFBR1 (Homo sapiens, UniProt P36897); test: KinomeScan; type: binding; conditions: read-out: % control
T36 construct: purchased DiscoveRx KINOMEscan

[40] = target: T37, VRK2 (Homo sapiens, UniProt Q86Y07); test: KinomeScan; type: binding; conditions: read-out: % control
T37 construct: purchased DiscoveRx KINOMEscan

[41] = target: T38, ALK (Homo sapiens, UniProt Q9UM73); test: KinomeScan; type: binding; conditions: read-out: % control
T38 construct: purchased DiscoveRx KINOMEscan

## C=CC(=O)N1CCC[C@@H](n2nc(-c3ccc(OCc4cccc(C)n4)c(Cl)c3)c3c(N)ncnc32)C1 [CHMFL-EGFR-26]
[1]
  remaining binding at 1 µM: 100%
[2]
  remaining binding at 1 µM: 85%
[3]
  remaining binding at 1 µM: 100%
[4]
  remaining binding at 1 µM: 100%
[5]
  remaining binding at 1 µM: 100%
[6]
  remaining binding at 1 µM: 94%
[7]
  remaining binding at 1 µM: 100%
[8]
  remaining binding at 1 µM: 100%
[9]
  remaining binding at 1 µM: 100%
[10]
  remaining binding at 1 µM: 100%
[11]
  remaining binding at 1 µM: 100%
[12]
  remaining binding at 1 µM: 95%
[13]
  remaining binding at 1 µM: 2.8%
[14]
  remaining binding at 1 µM: 100%
[15]
  remaining binding at 1 µM: 100%
[16]
  S score (1): 0.02
[17]
  remaining binding at 1 µM: 76%
[18]
  remaining binding at 1 µM: 99%
[19]
  remaining binding at 1 µM: 97%
[20]
  remaining binding at 1 µM: 85%
[21]
  % control: 100%
[22]
  remaining binding at 1 µM: 95%
[23]
  remaining binding at 1 µM: 93%
[24]
  remaining binding at 1 µM: 100%
[25]
  remaining binding at 1 µM: 100%
[26]
  remaining binding at 1 µM: 94%
[27]
  remaining binding at 1 µM: 100%
[28]
  remaining binding at 1 µM: 83%
[29]
  remaining binding at 1 µM: 86%
[30]
  remaining binding at 1 µM: 100%
[31]
  GI50: < 0.3 nM
[32]
  remaining binding at 1 µM: 100%
[33]
  remaining binding at 1 µM: 92%
[34]
  remaining binding at 1 µM: 100%
[35]
  remaining binding at 1 µM: 100%
[36]
  remaining binding at 1 µM: 86%
[37]
  remaining binding at 1 µM: 97%
[38]
  remaining binding at 1 µM: 100%
[39]
  remaining binding at 1 µM: 7%
[40]
  remaining binding at 1 µM: 95%
[41]
  remaining binding at 1 µM: 100%

Reference: PMC5392334, “Discovery and characterization of a novel irreversible EGFR mutants selective and potent kinase inhibitor CHMFL-EGFR-26 with a distinct binding mode” (Oncotarget, 2017)
